Active and inactive are the calls of the source.
How the values were obtained:
[1] = target: Long-chain-fatty-acid--AMP ligase FadD28 (Mycobacterium tuberculosis, UniProt P9WQ59); assay: Fluorescence polarization aasay to screen for inhibitors that compete for the binding of FadD28 to a bisubstrate Measured in Biochemical System Using Plate Reader - 2147-01_Inhibitor_Dose_CherryPick_Activity.; type: functional, Mycobacterium tuberculosis H37Rv
Protein Wnt-3a = Protein Wnt-3a (Mus musculus, UniProt P27467); assay: Wnt3a-driven reporter signaling inhibition, dose response, selectivity assay for Gli-SUFU antagonist project, Wnt-LIGHT cells, luminescence (AID 651570); type: functional; conditions: read-out: IC50_Mean;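 also: Wnt-LIGHT reporter cells stimulated with conditioned medium from Wnt3a-producing cells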
Sequence of Protein Wnt-3a (P27467 whole entry): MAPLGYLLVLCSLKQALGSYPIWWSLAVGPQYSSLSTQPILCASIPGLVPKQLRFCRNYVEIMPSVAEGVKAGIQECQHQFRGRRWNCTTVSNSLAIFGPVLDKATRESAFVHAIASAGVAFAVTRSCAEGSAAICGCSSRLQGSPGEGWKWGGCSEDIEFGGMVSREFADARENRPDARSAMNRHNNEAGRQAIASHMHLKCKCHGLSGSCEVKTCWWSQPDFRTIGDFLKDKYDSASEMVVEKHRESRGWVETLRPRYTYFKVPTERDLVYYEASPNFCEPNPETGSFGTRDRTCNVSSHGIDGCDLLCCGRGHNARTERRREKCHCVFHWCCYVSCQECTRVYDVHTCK

[2] = target: T1, High affinity choline transporter 1 (Homo sapiens, UniProt Q9GZV3); assay: CHT inhibitors, dose response, cell-based, 10-point CRC, membrane potential dye (AID 588401); type: functional;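 also: membrane potential dye fluorescence of choline-evoked depolarization via CHT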
T1 sequence (Q9GZV3 whole entry): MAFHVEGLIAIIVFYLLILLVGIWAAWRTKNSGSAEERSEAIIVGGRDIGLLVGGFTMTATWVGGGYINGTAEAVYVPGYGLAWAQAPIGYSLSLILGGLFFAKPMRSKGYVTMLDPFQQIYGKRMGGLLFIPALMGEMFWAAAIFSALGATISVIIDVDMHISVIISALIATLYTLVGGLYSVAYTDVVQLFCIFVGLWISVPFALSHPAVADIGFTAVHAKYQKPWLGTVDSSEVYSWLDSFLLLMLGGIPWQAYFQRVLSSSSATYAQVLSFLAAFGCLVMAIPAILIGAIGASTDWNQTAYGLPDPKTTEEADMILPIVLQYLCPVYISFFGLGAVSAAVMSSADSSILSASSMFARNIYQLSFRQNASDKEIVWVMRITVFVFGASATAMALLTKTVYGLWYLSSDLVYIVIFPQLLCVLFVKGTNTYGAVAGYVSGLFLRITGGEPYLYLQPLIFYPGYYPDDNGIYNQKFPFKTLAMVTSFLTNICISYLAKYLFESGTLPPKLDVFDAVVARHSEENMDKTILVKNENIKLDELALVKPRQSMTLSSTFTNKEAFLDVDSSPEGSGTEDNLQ

[3] = target: T1, High affinity choline transporter 1; assay: CHT inhibitors, dose response, cell-based, 5-point CRC, membrane potential dye (AID 504840); type: functional
[4] = target: T2, Small ubiquitin-related modifier 2 (Homo sapiens, UniProt P61956); assay: inhibitors of SUMO2 protein-protein interaction, dose response, selectivity assay for SUMO1 interaction inhibitor project, biochemical, FRET, human SUMO2, uHTS hits (AID 624384); type: functional; conditions: read-out: IC50_Mean
T2 sequence (P61956 whole entry): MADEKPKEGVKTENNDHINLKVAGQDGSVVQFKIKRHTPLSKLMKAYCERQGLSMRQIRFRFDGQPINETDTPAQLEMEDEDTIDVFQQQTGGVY

[5] = target: T2, Small ubiquitin-related modifier 2; assay: SUMO2–SIM peptide binding inhibitors, dose response, selectivity assay for SUMO1 interaction inhibitor project, biochemical, fluorescence polarization, uHTS hits (AID 624385); type: functional; conditions: read-out: IC50_Mean
H9c2 = assay: cells; type: functional, cell-based; conditions: Rattus norvegicus, H9c2, Myocardium;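 also: confirmatory concentration-response retest of ultra-high-throughput screening hits for modulation of myocardial damage; cell death induced by hydrogen peroxide oxidative stress; compound pretreatment for 60 min then peroxide exposure for 2 h; potency is for protecting the cells against peroxide damage rather than for killing them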
[6] = target: T3, Small ubiquitin-related modifier 1 (Homo sapiens, UniProt P63165); assay: inhibitors of SUMO1 partner interactions, dose response, biochemical, FRET (AID 624383); type: functional; conditions: read-out: IC50_Mean
T3 sequence (P63165 whole entry): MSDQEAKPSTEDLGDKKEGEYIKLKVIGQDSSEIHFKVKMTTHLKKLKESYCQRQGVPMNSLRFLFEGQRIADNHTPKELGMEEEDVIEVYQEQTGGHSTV

[7] = target: T3, Small ubiquitin-related modifier 1; assay: inhibitors of SUMO1 peptide binding, dose response, biochemical, fluorescence polarization, uHTS hits (AID 624382); type: functional; conditions: read-out: IC50_Mean
[8] = HEK293T cytotoxicity, dose response, cytotoxicity control for miR-122 modulator project, cell-based, inhibitor set, cherry-pick, set 2 (AID 720697); type: functional
[9] = HEK293T cytotoxicity, dose response, cytotoxicity control for miR-122 modulator project, cell-based, activator set, cherry-pick (AID 720690); type: functional;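 also: HEK293T human cells scored for general mammalian cytotoxicity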
[10] = miR-122 activators in hepatoma reporter cells, dose response, cell-based, Huh7 psiCHECK-miR122, Renilla luciferase, cherry-picked (AID 651956); type: functional;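 also: huh7 hepatoma cells stably carrying a psiCHECK-2 miR-122 sensor plasmid; renilla luciferase signal reporting endogenous miR-122 activity after 48 h compound exposure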
[11] = target: ADP-ribosylation factor GTPase-activating protein 1 (Rattus norvegicus, UniProt Q62848); assay: Fluorescence polarization-based biochemical high throughput dose response screening assay to identify inhibitors of ADP-ribosylation factor GTPase activating protein 1 (ARFGAP1).; type: functional
Sequence of ADP-ribosylation factor GTPase-activating protein 1 (Q62848 whole entry, the tested form may be a part): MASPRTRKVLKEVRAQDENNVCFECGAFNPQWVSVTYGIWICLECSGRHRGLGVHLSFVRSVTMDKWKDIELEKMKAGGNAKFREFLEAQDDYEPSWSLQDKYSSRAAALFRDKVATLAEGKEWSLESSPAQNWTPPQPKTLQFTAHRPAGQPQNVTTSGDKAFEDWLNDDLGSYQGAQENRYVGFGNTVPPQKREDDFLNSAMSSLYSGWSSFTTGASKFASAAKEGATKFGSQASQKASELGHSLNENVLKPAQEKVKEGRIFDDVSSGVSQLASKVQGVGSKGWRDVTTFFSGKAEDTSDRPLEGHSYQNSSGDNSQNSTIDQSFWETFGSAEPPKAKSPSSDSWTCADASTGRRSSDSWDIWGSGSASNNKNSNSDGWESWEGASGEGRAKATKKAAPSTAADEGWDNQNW

[12] = target: Arf-GAP with SH3 domain, ANK repeat and PH domain-containing protein 1 (Homo sapiens, UniProt Q9ULH1); type: functional;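 also: biochemical fluorescence polarization dose–response screen measuring inhibition of ASAP1; ASAP1 GAP domain stimulating GTP hydrolysis by truncated human ARF1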
Sequence of Arf-GAP with SH3 domain, ANK repeat and PH domain-containing protein 1 (Q9ULH1 whole entry, the tested form may be a part): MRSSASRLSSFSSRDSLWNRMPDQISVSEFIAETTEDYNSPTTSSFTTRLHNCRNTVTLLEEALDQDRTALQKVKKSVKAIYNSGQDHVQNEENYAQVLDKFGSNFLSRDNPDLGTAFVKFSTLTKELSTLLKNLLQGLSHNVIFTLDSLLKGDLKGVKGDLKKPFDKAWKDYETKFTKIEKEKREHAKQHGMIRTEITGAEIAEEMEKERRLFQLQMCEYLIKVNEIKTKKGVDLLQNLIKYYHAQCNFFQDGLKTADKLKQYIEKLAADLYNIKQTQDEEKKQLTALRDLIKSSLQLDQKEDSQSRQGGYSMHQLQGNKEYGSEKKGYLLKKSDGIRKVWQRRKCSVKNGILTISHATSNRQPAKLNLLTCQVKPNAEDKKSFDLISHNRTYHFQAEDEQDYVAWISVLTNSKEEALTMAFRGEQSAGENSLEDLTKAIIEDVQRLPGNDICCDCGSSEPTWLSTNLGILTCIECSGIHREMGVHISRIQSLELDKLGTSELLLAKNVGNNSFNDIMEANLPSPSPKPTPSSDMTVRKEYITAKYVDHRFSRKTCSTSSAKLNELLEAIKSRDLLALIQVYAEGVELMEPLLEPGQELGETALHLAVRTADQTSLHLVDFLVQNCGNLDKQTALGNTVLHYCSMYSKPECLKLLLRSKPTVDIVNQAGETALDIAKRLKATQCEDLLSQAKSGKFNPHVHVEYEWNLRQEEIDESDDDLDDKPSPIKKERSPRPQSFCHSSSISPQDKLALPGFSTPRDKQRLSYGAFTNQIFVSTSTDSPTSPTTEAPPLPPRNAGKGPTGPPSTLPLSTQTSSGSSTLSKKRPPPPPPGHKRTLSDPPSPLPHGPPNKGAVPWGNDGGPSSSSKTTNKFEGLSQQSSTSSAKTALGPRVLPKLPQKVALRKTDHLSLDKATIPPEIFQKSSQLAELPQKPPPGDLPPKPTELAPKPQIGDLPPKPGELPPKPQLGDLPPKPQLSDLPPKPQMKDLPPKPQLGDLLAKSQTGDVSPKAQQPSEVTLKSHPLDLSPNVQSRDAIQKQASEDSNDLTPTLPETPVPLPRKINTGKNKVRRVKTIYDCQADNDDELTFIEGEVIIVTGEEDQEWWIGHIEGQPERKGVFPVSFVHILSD

[13] = HEK293T cell cytotoxicity, dose response, cytotoxicity control for HIV Vif inhibitor project, cherry-picks (AID 652208); type: functional, cell-based
Beta-lactamase [14] = target: T4, Beta-lactamase (Pseudomonas aeruginosa, UniProt Q79MP6); assay: […] counterscreen for selective VIM-2 inhibitors: dose response biochemical high throughput screening assay to identify inhibitors of IMP-1 metallo-beta-lactamase.
T4 sequence (Q79MP6 whole entry): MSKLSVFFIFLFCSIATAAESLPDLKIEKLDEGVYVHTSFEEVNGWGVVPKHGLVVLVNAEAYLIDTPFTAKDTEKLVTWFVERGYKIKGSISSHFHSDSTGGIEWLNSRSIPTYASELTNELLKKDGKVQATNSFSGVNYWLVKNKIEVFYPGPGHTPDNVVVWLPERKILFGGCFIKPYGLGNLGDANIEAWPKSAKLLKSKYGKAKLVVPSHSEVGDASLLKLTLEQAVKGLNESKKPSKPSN

Beta-lactamase [15] = target: Beta-lactamase (Salmonella choleraesuis (strain SC-B67), UniProt Q5J463); assay: Epi-absorbance-based counterscreen for selective VIM-2 inhibitors: dose response biochemical high throughput screening assay to identify inhibitors of TEM-1 serine-beta-lactamase.
Sequence of Beta-lactamase (Salmonella choleraesuis (strain SC-B67), UniProt Q5J463) (Q5J463 whole entry): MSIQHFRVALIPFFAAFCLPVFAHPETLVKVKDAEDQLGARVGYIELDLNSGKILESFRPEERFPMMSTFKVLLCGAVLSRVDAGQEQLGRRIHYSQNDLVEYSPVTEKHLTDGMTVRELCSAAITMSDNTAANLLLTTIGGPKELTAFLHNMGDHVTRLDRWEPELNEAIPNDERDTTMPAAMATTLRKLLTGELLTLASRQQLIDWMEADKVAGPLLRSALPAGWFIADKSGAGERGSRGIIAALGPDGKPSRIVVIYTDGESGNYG

Beta-lactamase [16] = target: T4, Beta-lactamase; assay: IMP-1 metallo-beta-lactamase inhibitors, dose response, selectivity assay for VIM-2 inhibitor project, biochemical, epi-absorbance (AID 1920)

Sequence of Long-chain-fatty-acid--AMP ligase FadD28 (P9WQ59 whole entry): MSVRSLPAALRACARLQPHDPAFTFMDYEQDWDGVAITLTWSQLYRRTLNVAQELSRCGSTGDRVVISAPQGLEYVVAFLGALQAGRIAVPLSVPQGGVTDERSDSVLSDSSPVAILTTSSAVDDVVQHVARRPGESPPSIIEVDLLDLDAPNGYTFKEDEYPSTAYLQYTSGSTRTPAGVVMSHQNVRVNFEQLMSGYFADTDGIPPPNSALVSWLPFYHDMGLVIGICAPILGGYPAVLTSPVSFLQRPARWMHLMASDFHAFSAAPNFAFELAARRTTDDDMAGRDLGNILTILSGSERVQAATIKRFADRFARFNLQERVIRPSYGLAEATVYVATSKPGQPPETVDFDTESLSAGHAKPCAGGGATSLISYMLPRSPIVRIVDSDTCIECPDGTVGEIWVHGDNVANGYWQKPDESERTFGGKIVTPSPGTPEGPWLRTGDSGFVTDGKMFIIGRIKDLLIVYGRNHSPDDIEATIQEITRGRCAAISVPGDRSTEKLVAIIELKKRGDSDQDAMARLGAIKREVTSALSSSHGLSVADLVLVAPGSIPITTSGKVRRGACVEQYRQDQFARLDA

With `CCn1ncc(Br)c1C(=O)Nc1ccc(OC(F)(F)F)cc1` the AC50 [1] was 52 µM (active).
For `C/C(=N\NC(=O)C(=O)Nc1ccc(C)c(Cl)c1)c1ccncc1`, the IC50 (Protein Wnt-3a) was 0.909 µM (active).
In the case of `Cc1ccc(NC(=O)CN2C(=O)NC3(CCc4ccccc43)C2=O)cc1Cl` (stereo not drawn), the IC50 [2] is reported as 11.2 µM (active) and the IC50 [3] is reported as 9.3 µM (active).
With `Nc1cc2nc(O)c3ccccc3c2cc1[N+](=O)[O-]` the IC50 [4] was > 66 µM (inactive), the IC50 [5] was 45.7 µM (inactive) and the IC50 (H9c2) was > 79 µM (inactive). The IC50 [6] was 51.8 µM (inactive) and the IC50 [7] was 1.02 µM (active).
With `COc1ccc(OC)c(-c2cc(C3CCN(c4cc(Cl)nc(N)n4)CC3)[nH]n2)c1` the AC50 [8] was 18.1 µM (active), the AC50 [9] was 16.7 µM (active) and the AC50 [10] was 42.9 µM (active).
With `CC(=O)c1cccc(NC(=O)c2cccc3c(-c4cccnc4)coc23)c1` the IC50 [11] was 129 µM (inactive) and the IC50 [12] was 79.4 µM (inactive).
With `CC(=O)Nc1ccc(NC(=O)COc2ccccc2C(=O)Nc2cccc(Cl)c2Cl)cc1` the AC50 [13] was 8.25 µM (active).
With `Cc1ccccc1C(=O)Nc1nnc(SCC(=O)NCc2ccco2)s1` the IC50 (Beta-lactamase [14]) was > 59.6 µM (inactive), the IC50 (Beta-lactamase [15]) was > 59.6 µM (inactive) and the IC50 (Beta-lactamase [16]) was > 59.6 µM (inactive).

From ChEMBL document CHEMBL1201862, “PubChem BioAssay data set” (2004)
